Test results published in ChEMBL document CHEMBL1201862, “PubChem BioAssay data set” (2004).
Active and inactive are the calls of the source.

Columns and labels:
[1] = HepG2 cell cytotoxicity, dose response, cytotoxicity control, luminescence plate reader, powder samples, set 2 (AID 651860); type: functional, cell-based
[2] = M. tuberculosis growth inhibition, HTS (AID 449762); type: functional
[3] = A375 melanoma cell viability loss, dose response, counter-screen for MITF inhibitor project, CellTiter-Glo luminescence, dry powder, set 4 (AID 624364); type: functional, cell-based; details: A-375;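 further: A375 melanoma cells are MITF independent so this is a counter screen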
[4] = A375 melanoma cell cytotoxicity, dose response, counter-screen for MITF inhibitor project, CellTiter-Glo luminescence, dry powder, set 2 (AID 624489); type: functional, cell-based; details: A-375;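 further: actives are compounds lowering A375 viability meaning general cytotoxicity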
[5] = tested on: Streptococcus sp. 'group A'; assay: growth inhibition of control SK(-) GAS strain, dose response, counter-screen for streptokinase expression inhibitor project, luminescence, kanamycin, BacTiterGlo, confirmation (AID 1900); type: functional, organism-based
[6] = target: Disintegrin and metalloproteinase domain-containing protein 17 (Homo sapiens, UniProt P78536); assay: ADAM17 protease inhibitors, dose response, counter-screen for ADAM10 exosite inhibitor project, biochemical, quenched FRET substrate (AID 743253)
Disintegrin and metalloproteinase domain-containing protein 17, sequence (P78536 whole entry, the tested form may be a part): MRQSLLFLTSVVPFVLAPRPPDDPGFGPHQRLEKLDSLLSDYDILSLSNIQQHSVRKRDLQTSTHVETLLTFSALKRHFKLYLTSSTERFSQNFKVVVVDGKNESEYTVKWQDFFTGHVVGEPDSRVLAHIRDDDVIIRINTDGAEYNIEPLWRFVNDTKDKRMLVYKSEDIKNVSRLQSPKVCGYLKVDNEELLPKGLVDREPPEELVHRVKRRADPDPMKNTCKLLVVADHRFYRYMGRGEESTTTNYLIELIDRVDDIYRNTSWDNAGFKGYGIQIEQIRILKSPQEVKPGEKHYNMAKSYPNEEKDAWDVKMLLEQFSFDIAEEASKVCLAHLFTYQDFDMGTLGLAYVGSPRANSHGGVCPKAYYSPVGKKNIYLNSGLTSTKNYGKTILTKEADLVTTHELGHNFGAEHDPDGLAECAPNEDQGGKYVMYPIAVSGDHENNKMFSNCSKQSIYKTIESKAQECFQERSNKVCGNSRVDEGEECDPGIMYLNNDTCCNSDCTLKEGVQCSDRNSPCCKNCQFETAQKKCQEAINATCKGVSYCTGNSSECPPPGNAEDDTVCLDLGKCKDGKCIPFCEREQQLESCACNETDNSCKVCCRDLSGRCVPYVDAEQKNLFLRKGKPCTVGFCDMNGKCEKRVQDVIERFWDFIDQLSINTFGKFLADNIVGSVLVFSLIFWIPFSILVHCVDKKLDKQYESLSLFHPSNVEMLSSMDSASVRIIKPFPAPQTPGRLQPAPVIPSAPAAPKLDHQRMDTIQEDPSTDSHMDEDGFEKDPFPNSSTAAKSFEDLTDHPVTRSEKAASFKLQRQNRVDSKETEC

[7] = tested on: Streptococcus; assay: Group A Streptococcus viability loss, dose response, counter-screen for streptokinase expression inhibitor project, luminescence, BacTiterGlo (AID 1915); type: functional, organism-based;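 further: potency for reduction of bacterial viability or growth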
[8] = target: T1, Streptokinase A (Streptococcus pyogenes serotype M1, UniProt P10520); assay: S. pyogenes streptokinase expression inhibitors, potency, dose response, plasminogen activation absorbance, OD405 (AID 1914); type: functional, Streptococcus pyogenes M1 GAS;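 further: secreted streptokinase activity via plasminogen activation per viability signal from cell pellet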
T1 sequence (P10520 whole entry): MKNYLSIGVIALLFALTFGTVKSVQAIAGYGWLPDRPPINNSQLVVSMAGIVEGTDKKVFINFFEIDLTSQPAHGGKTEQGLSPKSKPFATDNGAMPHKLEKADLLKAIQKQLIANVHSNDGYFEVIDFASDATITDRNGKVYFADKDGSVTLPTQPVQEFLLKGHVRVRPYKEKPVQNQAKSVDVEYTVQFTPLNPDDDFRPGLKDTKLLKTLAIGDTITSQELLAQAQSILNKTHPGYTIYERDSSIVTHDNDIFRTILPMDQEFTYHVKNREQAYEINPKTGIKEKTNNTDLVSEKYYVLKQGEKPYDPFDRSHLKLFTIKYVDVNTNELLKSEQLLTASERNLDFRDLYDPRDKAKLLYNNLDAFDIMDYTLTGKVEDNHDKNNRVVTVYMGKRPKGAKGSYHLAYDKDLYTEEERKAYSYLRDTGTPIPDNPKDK

[9] = Luminescence Cell-Based Dose Retest to Confirm Inhibitors of Cancer Stem Cells. [Related pubchem assays (depositor defined):AID2717, AID2721]; type: functional; details: Homo sapiens
[10] = Dose-response inhibition of insulin secretion in a rat insulinoma line at 5 mM glucose (AID 1117331); type: functional, cell-based; details: INS-1E
[11] = HEK293 cell cytotoxicity, dose response, cytotoxicity control, plate reader, cherry-picked samples (AID 743446); type: functional, cell-based
[12] = tested on: HEK293; assay: cells; type: functional, cell-based; details: Homo sapiens
[13] = A549 cell cytotoxicity, dose response, cytotoxicity control, plate reader, cherry-pick, antagonist series (AID 743412); type: functional, cell-based
[14] = tested on: HEK293; assay: NOD2 signaling inhibitors in MDP-stimulated cells, cell-based, uHTS, luminescence (AID 2001); type: functional; details: Homo sapiens
[15] = HepG2 cell cytotoxicity, dose response, cytotoxicity control for Shn3 inhibitor project, CellTiter-Glo, cherry-picked (AID 624134); type: functional, cell-based
[16] = target: Neurotensin receptor type 1 (Homo sapiens, UniProt P30989); type: functional;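 further: Image-based confirmatory dose-response assay measuring agonist activity at NTR1; NTR1-expressing U2OS osteosarcoma cells imaged for beta-arrestin GFP spot formation; agonist potency where compounds increase beta-arrestin recruitment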
[17] = HepG2 cell cytotoxicity, dose response, cytotoxicity control, plate reader, cherry-pick, antagonist series (AID 743416); type: functional, cell-based
[18] = control 3'UTR Renilla luciferase suppression, dose response, counter-screen for Shn3 inhibitor project, cell-based, Clone20-Shn3RL, cherry-picked (AID 624133); type: functional
[19] = tested on: HEK293; assay: cells; type: functional, cell-based; details: Homo sapiens; remark: listed apart in the source
[20] = Shn3 3'UTR reporter inhibitors, dose response, cell-based, Clone20 osteoblasts, firefly luciferase, cherry-picked (AID 624132); type: functional;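 further: firefly luciferase luminescence from reporter carrying the Shn3 3'UTR in osteoblasts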
[21] = target: 1-phosphatidylinositol 4,5-bisphosphate phosphodiesterase gamma-1 (Homo sapiens, UniProt P19174); assay: Counterscreen for inhibitors of phospholipase C isozymes (PLC-B3): Fluorescence-based biochemical high throughput dose response assay to identify inhibitors of phospholipase C isozymes (PLC-gamma1).
1-phosphatidylinositol 4,5-bisphosphate phosphodiesterase gamma-1, sequence (P19174 whole entry, the tested form may be a part): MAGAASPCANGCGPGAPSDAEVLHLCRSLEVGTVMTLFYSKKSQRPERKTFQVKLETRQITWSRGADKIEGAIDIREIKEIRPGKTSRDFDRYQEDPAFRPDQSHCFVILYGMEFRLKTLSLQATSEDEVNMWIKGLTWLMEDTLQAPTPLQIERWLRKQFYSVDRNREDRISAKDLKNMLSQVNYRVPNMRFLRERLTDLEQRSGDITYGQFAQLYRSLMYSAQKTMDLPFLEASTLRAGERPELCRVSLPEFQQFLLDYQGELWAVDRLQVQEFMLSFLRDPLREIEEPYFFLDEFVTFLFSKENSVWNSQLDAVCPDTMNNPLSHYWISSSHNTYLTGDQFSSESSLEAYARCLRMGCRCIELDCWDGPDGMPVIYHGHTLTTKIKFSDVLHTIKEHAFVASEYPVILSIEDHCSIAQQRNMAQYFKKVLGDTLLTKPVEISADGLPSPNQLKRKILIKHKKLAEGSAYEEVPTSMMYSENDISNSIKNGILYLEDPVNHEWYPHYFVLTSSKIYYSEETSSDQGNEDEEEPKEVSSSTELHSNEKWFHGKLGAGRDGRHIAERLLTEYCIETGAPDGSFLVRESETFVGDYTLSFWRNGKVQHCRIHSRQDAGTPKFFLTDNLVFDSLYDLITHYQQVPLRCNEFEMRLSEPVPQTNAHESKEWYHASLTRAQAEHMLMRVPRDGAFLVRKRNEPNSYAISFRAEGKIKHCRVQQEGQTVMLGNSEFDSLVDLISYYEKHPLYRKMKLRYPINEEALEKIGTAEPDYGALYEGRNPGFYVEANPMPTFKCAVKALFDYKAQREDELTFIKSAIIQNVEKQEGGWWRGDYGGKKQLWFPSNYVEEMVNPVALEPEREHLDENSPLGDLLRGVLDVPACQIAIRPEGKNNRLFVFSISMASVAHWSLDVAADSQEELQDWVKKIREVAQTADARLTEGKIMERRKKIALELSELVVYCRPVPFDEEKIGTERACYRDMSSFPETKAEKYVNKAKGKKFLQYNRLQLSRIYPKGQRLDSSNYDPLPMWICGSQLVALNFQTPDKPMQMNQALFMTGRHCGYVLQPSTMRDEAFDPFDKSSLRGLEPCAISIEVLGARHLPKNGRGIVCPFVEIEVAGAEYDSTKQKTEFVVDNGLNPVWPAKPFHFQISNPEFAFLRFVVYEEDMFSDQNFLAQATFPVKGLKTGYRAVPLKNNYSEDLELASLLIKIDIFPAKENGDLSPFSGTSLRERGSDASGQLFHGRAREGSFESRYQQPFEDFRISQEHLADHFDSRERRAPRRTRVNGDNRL

[22] = target: Nucleotide-binding oligomerization domain-containing protein 2 (Homo sapiens, UniProt Q9HC29); assay: NOD2 signaling inhibitors, cell-based, luminescence, uHTS, HEK293 (AID 1566); type: functional
Nucleotide-binding oligomerization domain-containing protein 2, sequence (Q9HC29 whole entry, the tested form may be a part): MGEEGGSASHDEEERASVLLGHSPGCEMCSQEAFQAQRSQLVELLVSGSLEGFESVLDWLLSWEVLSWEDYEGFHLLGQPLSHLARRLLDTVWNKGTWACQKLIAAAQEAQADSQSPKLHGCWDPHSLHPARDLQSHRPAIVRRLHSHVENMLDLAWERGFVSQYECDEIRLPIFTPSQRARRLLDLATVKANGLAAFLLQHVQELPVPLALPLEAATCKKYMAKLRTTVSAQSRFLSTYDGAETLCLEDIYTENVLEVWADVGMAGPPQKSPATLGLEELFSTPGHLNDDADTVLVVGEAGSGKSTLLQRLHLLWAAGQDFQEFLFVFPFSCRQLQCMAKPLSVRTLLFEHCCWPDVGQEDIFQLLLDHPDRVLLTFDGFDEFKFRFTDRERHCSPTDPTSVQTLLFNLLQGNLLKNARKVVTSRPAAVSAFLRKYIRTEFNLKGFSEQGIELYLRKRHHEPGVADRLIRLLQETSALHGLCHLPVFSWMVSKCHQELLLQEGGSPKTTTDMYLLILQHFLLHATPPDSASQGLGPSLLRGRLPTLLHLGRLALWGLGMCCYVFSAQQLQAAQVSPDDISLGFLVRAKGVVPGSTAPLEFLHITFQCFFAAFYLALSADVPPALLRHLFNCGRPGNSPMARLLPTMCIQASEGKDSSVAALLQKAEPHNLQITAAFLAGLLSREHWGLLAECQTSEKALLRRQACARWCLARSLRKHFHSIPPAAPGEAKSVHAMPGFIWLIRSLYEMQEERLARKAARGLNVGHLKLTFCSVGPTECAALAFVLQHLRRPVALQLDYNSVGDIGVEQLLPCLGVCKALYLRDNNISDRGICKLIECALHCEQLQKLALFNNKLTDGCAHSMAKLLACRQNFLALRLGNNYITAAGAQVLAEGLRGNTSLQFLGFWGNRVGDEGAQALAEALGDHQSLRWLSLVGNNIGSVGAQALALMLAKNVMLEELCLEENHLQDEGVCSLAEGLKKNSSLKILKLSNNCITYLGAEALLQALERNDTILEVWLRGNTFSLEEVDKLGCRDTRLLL

[23] = target: 1-phosphatidylinositol 4,5-bisphosphate phosphodiesterase beta-3 (Homo sapiens, UniProt Q01970); assay: Fluorescence-based biochemical high throughput dose response assay to identify inhibitors of phospholipase C isozymes (PLC-B3).
[24] = LGR2 antagonists, dose response, cell-based, HEK293, CRE-luciferase reporter, cherry pick, set 2 (AID 743343); type: functional;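 further: transfected cells were stimulated with diluted bursicon conditioned medium after compound addition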
[25] = tested on: HEK293; assay: cells; type: functional, cell-based; details: Homo sapiens; remark: listed apart in the source
[26] = tested on: HEK293; assay: NOD1 signaling inhibitors, primary screen, cell-based, luminescence, uHTS (AID 1578); type: functional; details: Homo sapiens
[27] = MC4R antagonists, dose response, counter-screen for LGR2 antagonist project, cell-based, plate reader, cherry pick (AID 743444); type: functional;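 further: transfected HEK 293 cells stimulated with alpha-MSH peptide; potency of inhibitors of the alpha-MSH evoked signal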
[28] = target: Ephrin type-A receptor 4 (Mus musculus, UniProt Q03137); assay: inhibitors of EphA4 binding to KYL peptide, primary screen, biochemical, colorimetric, mouse EphA4 (AID 689); type: functional
Ephrin type-A receptor 4, sequence (Q03137 whole entry): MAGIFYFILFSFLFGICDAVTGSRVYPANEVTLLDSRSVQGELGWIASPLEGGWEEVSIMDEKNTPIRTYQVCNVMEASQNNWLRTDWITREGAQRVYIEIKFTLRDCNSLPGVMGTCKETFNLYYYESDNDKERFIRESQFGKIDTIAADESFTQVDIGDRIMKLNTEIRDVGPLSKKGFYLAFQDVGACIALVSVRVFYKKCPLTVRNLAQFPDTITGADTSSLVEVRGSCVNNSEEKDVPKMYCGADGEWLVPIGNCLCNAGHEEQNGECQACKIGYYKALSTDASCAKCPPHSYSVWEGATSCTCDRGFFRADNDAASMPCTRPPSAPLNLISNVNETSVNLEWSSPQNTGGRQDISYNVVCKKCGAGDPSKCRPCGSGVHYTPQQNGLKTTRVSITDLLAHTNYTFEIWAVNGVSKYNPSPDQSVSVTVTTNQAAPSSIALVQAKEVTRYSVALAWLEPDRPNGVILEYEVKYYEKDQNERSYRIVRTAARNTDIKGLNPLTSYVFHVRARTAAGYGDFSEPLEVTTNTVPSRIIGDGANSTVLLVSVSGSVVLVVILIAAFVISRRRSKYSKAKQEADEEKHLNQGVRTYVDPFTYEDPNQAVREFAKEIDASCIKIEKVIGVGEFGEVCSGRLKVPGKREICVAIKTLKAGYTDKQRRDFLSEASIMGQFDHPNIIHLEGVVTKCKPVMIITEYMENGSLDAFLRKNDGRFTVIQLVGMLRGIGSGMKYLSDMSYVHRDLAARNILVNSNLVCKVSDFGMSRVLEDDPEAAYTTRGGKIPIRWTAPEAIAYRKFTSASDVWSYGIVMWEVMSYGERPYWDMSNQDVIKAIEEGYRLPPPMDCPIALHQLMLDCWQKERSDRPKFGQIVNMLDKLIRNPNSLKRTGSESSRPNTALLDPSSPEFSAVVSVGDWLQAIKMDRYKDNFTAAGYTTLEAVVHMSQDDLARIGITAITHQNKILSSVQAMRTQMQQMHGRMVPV

[29] = inhibitors of intracellular T. cruzi replication, confirmation, NIH3T3 host cells, beta-gal luminescence (AID 2044); type: functional, cell-based;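 further: intracellular parasites grown in NIH/3T3 mouse fibroblasts as host cells; luminescent beta-galactosidase reporter signal from transgenic T. cruzi replicating inside host cells; inhibitors lower the luminescence signal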
[30] = cytotoxicity toward NIH3T3 fibroblasts, dose response, counter-screen, cell-based, ATP luminescence, mouse fibroblasts (AID 2010); type: functional;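 further: cells exposed to compound for about 90 hours before reading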
[31] = Luminescence Cell-Based Secondary HTS screen to identify cytotoxic compounds of NIH3T3 cells. [Related pubchem assays: 1885, 1968 ]; type: functional
[32] = target: Potassium channel subfamily K member 9 (Homo sapiens, UniProt Q9NPC2); assay: TASK3 (KCNK9) channel inhibitors, thallium flux, SAR follow-up, selectivity assay for TASK1 inhibitor project, cell-based, FluxOR thallium flux, concentration-response (AID 652211); type: functional;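 further: potency is for inhibitors of the channel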
Potassium channel subfamily K member 9, sequence (Q9NPC2 whole entry): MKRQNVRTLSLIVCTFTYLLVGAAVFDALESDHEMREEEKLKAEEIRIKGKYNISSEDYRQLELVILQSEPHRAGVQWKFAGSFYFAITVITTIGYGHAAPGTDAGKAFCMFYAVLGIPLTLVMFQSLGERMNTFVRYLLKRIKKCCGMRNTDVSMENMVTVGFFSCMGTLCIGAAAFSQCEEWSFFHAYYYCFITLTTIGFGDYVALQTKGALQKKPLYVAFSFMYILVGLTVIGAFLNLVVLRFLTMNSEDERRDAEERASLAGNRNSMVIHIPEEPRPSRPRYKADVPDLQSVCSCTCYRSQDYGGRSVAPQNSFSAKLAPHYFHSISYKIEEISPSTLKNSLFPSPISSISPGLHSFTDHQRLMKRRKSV

[33] = target: Potassium channel subfamily K member 3 (Homo sapiens, UniProt O14649); assay: TASK1 (KCNK3) potassium channel inhibitors, SAR follow-up, CHO cells, FluxOR thallium flux (AID 652212); type: functional
Potassium channel subfamily K member 3, sequence (O14649 whole entry): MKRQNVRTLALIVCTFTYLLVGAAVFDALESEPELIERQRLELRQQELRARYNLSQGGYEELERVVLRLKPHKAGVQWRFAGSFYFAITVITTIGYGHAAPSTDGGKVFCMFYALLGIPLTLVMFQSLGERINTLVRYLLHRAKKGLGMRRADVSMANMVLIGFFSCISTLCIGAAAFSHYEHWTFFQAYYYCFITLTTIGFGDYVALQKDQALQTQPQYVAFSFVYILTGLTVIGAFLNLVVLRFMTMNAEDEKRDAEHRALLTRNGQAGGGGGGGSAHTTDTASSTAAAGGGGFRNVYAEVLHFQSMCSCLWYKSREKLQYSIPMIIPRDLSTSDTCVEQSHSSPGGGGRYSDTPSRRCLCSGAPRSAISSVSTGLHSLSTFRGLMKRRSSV

Question: Which AC50 [1] does the source give for Cc1ccc(S(=O)(=O)Nc2cc(C(C(=O)OC(C)C)C(=O)C(F)(F)F)c(O)c3ccccc23)cc1 (stereo not drawn) here?
Answer: The AC50 was > 52 µM (inactive).

Question: Which IC50 [2] does the source give for Fc1ccc(N/N=C2/CC(c3ccccc3)Oc3ccccc32)c(F)c1 (stereo not drawn) here?
Answer: Its IC50 is > 100 µM (active).

Question: Which AC50 [3] does the source give for C=CCNC1=C(NCCN(CC)CC)C(=O)c2ccccc2C1=O here?
Answer: Its AC50 is 36 µM (active).

Question: What about the AC50 [4] of the same compound?
Answer: Its AC50 is 17.4 µM (active).

Question: Which EC50 [5] does the source give for Oc1ccc(Cl)cc1-c1cc(-c2cccc(Br)c2)[nH]n1 here?
Answer: The EC50 was 5.6 µM (active).

Question: And the IC50 [6]?
Answer: The IC50 was > 69.5 µM (inactive).

Question: What about the EC50 [7] of the same compound?
Answer: The EC50 was 6.65 µM (active).

Question: What about the EC50 [8] of the same compound?
Answer: The EC50 was > 150 µM (not active).

Question: What about the AC50 [9] of the same compound?
Answer: The AC50 was 5.22 µM (active).

Question: With O=C(CCN1CCN2CCCC2C1)N1c2ccccc2Sc2ccc(Cl)cc21 (stereo not drawn) [AZACLORZINE] as the compound, how does the IC50 [10] read?
Answer: The IC50 was 16.8 µM (inactive).

Question: With CN(C(=O)COc1ccccc1C(=O)NCCOc1ccccc1)c1ccccc1 as the compound, how does the AC50 [11] read?
Answer: Its AC50 is 15.9 µM (active).

Question: And the IC50 [12]?
Answer: The IC50 was 11.2 µM (active).

Question: And the AC50 [13]?
Answer: The AC50 was 20.8 µM (active).

Question: What about the IC50 [14] of the same compound?
Answer: Its IC50 is 4.32 µM (active).

Question: What about the AC50 [15] of the same compound?
Answer: The AC50 was 51.9 µM (active).

Question: What about the EC50 [16] of the same compound?
Answer: Its EC50 is 17.9 µM (active).

Question: What about the AC50 [17] of the same compound?
Answer: The AC50 was 32.7 µM (active).

Question: And the AC50 [18]?
Answer: Its AC50 is 4.23 µM (active).

Question: What about the IC50 [19] of the same compound?
Answer: The IC50 was 3.82 µM (active).

Question: What about the AC50 [20] of the same compound?
Answer: Its AC50 is 1.57 µM (active).

Question: What about the IC50 [21] of the same compound?
Answer: The IC50 was > 122 µM (inactive).

Question: What about the EC50 [22] of the same compound?
Answer: Its EC50 is 7.78 µM (active).

Question: And the IC50 [23]?
Answer: Its IC50 is > 122 µM (inactive).

Question: What about the AC50 [24] of the same compound?
Answer: The AC50 was 12.8 µM (active).

Question: What about the IC50 [25] of the same compound?
Answer: The IC50 was 3.42 µM (active).

Question: What about the EC50 [26] of the same compound?
Answer: The EC50 was 5.76 µM (active).

Question: And the AC50 [27]?
Answer: Its AC50 is 11.2 µM (active).

Question: For Cc1cc(C)n(CNc2nc(C(F)(F)F)cs2)n1, which IC50 [28] is on record?
Answer: Its IC50 is > 100 µM (not active).

Question: Which EC50 [29] does the source give for O=C(NCC1CCCN(Cc2cccc(C(F)(F)F)c2)C1)c1ccc(F)cc1 (stereo not drawn) here?
Answer: The EC50 was 0.112 µM (active).

Question: And the EC50 [30]?
Answer: The EC50 was > 60 µM (inconclusive).

Question: What about the EC50 [31] of the same compound?
Answer: The EC50 was > 195 µM (not active).

Question: What does the source list for COc1cccc(OC)c1C(=O)Nc1cccc(NC(=O)c2cccc(C)c2)c1?
Answer: IC50 [32]: 19.2 µM (active); IC50 [33]: 0.148 µM (active)
